This data set is described as follows: recombinant barcode read abundance after kanamycin selection (control-corrected) (log10(CPM+1)); higher = more efficient recombination; sequences stand for … in AGTGCAGAGAAAATCGGCCAGTTTTCTCTGCCTGCAGTCCGCATGCCGT…AGATTTATGCAGCGGACTGCCTTTCTCCCAAAGTGATAAACCGGACAGTATCATGGACCGGTTTTCCCGGTAATCCGTATTTGCAAGGTTGGTTTCACT; site = the 11-nt target. A digest of the protocol: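 Targets were screened in pooled form in E. coli against IS621 bridge RNA target-binding loops. Recombination efficiency is based on barcode counts at recombinant junctions in counts per million, averaged and corrected for the control. Numbers are shown as log10(CPM+1), with duplicate plates on chloramphenicol/ampicillin LB agar (control) or chloramphenicol/ampicillin/kanamycin with 0.1 mM IPTG.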
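Further: IS621 recombinase and bridge RNA in Escherichia coli cells.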

Regarding “GCACGGACTTGGGTTCTAACCTGTTGCAG (site GCATGGACTCT)”, the “recombinant barcode read abundance (log10)” value amounted to 0.3.
For the sequence “GCACTAACTTGGGTTCTAACCTGTTGCCT (site GCACTAACTAG)”, the “recombinant barcode read abundance (log10)” value was found to be 1.14.
For “GCACTAACTTGGGTTCTAACCTGTTGCCT (site GCACTAGCTAC)”, the “recombinant barcode read abundance (log10)” value worked out at 0.216.
As for “GCAGGGACTTGGGTTCTAACCTGTTGCAG (site GCAAGGACTCT)”, the “recombinant barcode read abundance (log10)” value amounted to 0.883.
For the sequence “GCAGGGACTTGGGTTCTAACCTGTTGCAG (site GCACGGACTCT)”, the “recombinant barcode read abundance (log10)” value came to 0.552.
For the sequence “GCAGGGACTTGGGTTCTAACCTGTTGCAG (site GCAGGGACTCT)”, the “recombinant barcode read abundance (log10)” value came out at 1.72.
As to “GCAGGGACTTGGGTTCTAACCTGTTGCAG (site GCATGGACTCT)”, the “recombinant barcode read abundance (log10)” value was 0.224.
As for “GCAGGGTCTTGGGTTCTAACCTGTTGCCT (site GCAAGATCTAG)”, the “recombinant barcode read abundance (log10)” value is 0.158.
The same measure for “GCAGGGTCTTGGGTTCTAACCTGTTGCCT (site GCAGGGTCTAG)”: 1.45; for “GCATCGTCTTGGGTTCTAACCTGTTGCCT (site GCATCGTCTAG)”: 0.649.
Turning to “GCATCGTCTTGGGTTCTAACCTGTTGCCT (site GCCTCGTCTAG)”, the “recombinant barcode read abundance (log10)” value is 0.0437.
In the case of “GCATCGTCTTGGGTTCTAACCTGTTGCCT (site GCGTCGTCTAG)”, the “recombinant barcode read abundance (log10)” value stood at 0.0424.
The same measure for “GCATCGTCTTGGGTTCTAACCTGTTGCCT (site GCTTCGTCTAG)”: 0.0989; for “GCCAACCCTTGGGTTCTAACCTGTTGCTT (site GCCAACCCTAA)”: 0.0414; for “GCCAACCCTTGGGTTCTAACCTGTTGCTT (site GCCAACCCTAC)”: 0.0528.
For “GCCAACCCTTGGGTTCTAACCTGTTGCTT (site GCCAACCCTAG)”, the “recombinant barcode read abundance (log10)” value is 0.412.
On to “GCCAACCCTTGGGTTCTAACCTGTTGCTT (site GCCAACCCTAT)”, for which the “recombinant barcode read abundance (log10)” value turned out to be 0.39.
In the case of “GCCATCACTTGGGTTCTAACCTGTTGCCT (site GCCATAACTAG)”, the “recombinant barcode read abundance (log10)” value turned out to be 0.00743.
The same measure for “GCCATCACTTGGGTTCTAACCTGTTGCCT (site GCCATCACTAG)”: 0.112.
Consider “GCCATCACTTGGGTTCTAACCTGTTGCCT (site GCCATGACTAG)”, for which the “recombinant barcode read abundance (log10)” value worked out at 0.152.
As to “GCCATCACTTGGGTTCTAACCTGTTGCCT (site GCCATTACTAG)”, the “recombinant barcode read abundance (log10)” value was 0.12.
As for “GCCATCTCTTGGGTTCTAACCTGTTGCCT (site GCCATCTCTAG)”, the “recombinant barcode read abundance (log10)” value was 0.0476.
On to “GCCATCTCTTGGGTTCTAACCTGTTGCCT (site GCCGTCTCTAG)”, for which the “recombinant barcode read abundance (log10)” value is 0.0992.
As to “GCCATGTCTTGGGTTCTAACCTGTTGCCT (site GCCATGTCTAG)”, the “recombinant barcode read abundance (log10)” value amounted to 0.502.
For the sequence “GCCATGTCTTGGGTTCTAACCTGTTGCCT (site GTCATGTCTAG)”, the “recombinant barcode read abundance (log10)” value came to 0.0158.
The value for “GCCCATCCTTGGGTTCTAACCTGTTGCTA (site GCCCATCCTTA)” was 1.36; that for “GCCCATCCTTGGGTTCTAACCTGTTGCTA (site TAGTGAGCTCG)” was 0.222; that for “GCCCCATCTTGGGTTCTAACCTGTTGCCT (site GCCCAATCTAG)” was 0.00703.
The value for “GCCCCATCTTGGGTTCTAACCTGTTGCCT (site GCCCCATCTAG)” was 0.601; that for “GCCCCATCTTGGGTTCTAACCTGTTGCCT (site GCCCGATCTAG)” was 0.37; that for “GCCCCATCTTGGGTTCTAACCTGTTGCCT (site GCCCTATCTAG)” was 0.384.
For the sequence “GCCCCGCCTTGGGTTCTAACCTGTTGCAG (site GCCACGCCTCT)”, the “recombinant barcode read abundance (log10)” value was 0.319.
The value for “GCCCCGCCTTGGGTTCTAACCTGTTGCAG (site GCCCCGCCTCT)” was 1.02; that for “GCCCCGCCTTGGGTTCTAACCTGTTGCAG (site GCCGCGCCTCT)” was 0.00897; that for “GCCCCGCCTTGGGTTCTAACCTGTTGCAG (site GCCTCGCCTCT)” was 0.0556.
With “GCCCGGGCTTGGGTTCTAACCTGTTGCCG (site GCCAGGGCTCG)”, the “recombinant barcode read abundance (log10)” value is 0.144.
The same measure for “GCCCGGGCTTGGGTTCTAACCTGTTGCCG (site GCCCGGGCTCG)”: 0.309; for “GCCCGGGCTTGGGTTCTAACCTGTTGCCG (site GCCGGGGCTCG)”: 0.0496; for “GCCCGGGCTTGGGTTCTAACCTGTTGCCG (site GCCTGGGCTCG)”: 0.0679.
Turning to “GCCCGTGCTTGGGTTCTAACCTGTTGCCT (site GCACGTGCTAG)”, the “recombinant barcode read abundance (log10)” value stood at 0.377.
Turning to “GCCCGTGCTTGGGTTCTAACCTGTTGCCT (site GCCCGTGCTAG)”, the “recombinant barcode read abundance (log10)” value stood at 1.31.
As for “GCCCGTGCTTGGGTTCTAACCTGTTGCCT (site GCGCGTGCTAG)”, the “recombinant barcode read abundance (log10)” value turned out to be 0.177.
Turning to “GCCCGTGCTTGGGTTCTAACCTGTTGCCT (site GCTCGTGCTAG)”, the “recombinant barcode read abundance (log10)” value stood at 0.0122.
Consider “GCCCTGCCTTGGGTTCTAACCTGTTGCCT (site GCACTGCCTAG)”, for which the “recombinant barcode read abundance (log10)” value was 0.705.
The value for “GCCCTGCCTTGGGTTCTAACCTGTTGCCT (site GCCCTGCCTAG)” was 1.43; that for “GCCCTTGCTTGGGTTCTAACCTGTTGCCT (site GAACTTGCTAG)” was 0.114; that for “GCCCTTGCTTGGGTTCTAACCTGTTGCCT (site GCCCTTGCTAG)” was 1.79.
The value for “GCCGACACTTGGGTTCTAACCTGTTGCCT (site GCCGAAACTAG)” was 0.0569; that for “GCCGACACTTGGGTTCTAACCTGTTGCCT (site GCCGACACTAG)” was 0.13.
In the case of “GCCGACACTTGGGTTCTAACCTGTTGCCT (site GCCGAGACTAG)”, the “recombinant barcode read abundance (log10)” value amounted to 0.284.
For “GCCGACACTTGGGTTCTAACCTGTTGCCT (site GCCGATACTAG)”, the “recombinant barcode read abundance (log10)” value was found to be 0.17.
The value for “GCCGAGTCTTGGGTTCTAACCTGTTGCTC (site GCCGAGTCTAA)” was 0.191.
In the case of “GCCGAGTCTTGGGTTCTAACCTGTTGCTC (site GCCGAGTCTCA)”, the “recombinant barcode read abundance (log10)” value was 0.0833.
The same measure for “GCCGAGTCTTGGGTTCTAACCTGTTGCTC (site GCCGAGTCTGA)”: 1.2.
Turning to “GCCGAGTCTTGGGTTCTAACCTGTTGCTC (site GCCGAGTCTTA)”, the “recombinant barcode read abundance (log10)” value is 0.371.
“GCCGATCCTTGGGTTCTAACCTGTTGCCT (site GACGATCCTAG)”: the “recombinant barcode read abundance (log10)” value stood at 0.332.
For the sequence “GCCGATCCTTGGGTTCTAACCTGTTGCCT (site GCCGATCCTAG)”, the “recombinant barcode read abundance (log10)” value was found to be 0.12.
In the case of “GCCGATCCTTGGGTTCTAACCTGTTGCCT (site GGCGATCCTAG)”, the “recombinant barcode read abundance (log10)” value is 0.205.
For the sequence “GCCGATCCTTGGGTTCTAACCTGTTGCCT (site GTCGATCCTAG)”, the “recombinant barcode read abundance (log10)” value is 0.0291.

For the origin of these results see the supplement of paper PMC11208160.
